Toxic doses and inconclusive results are not listed. Cut-off read from the data, not from the text of the source: active = T/C of 150% or more; inactive = T/C below 125%.
Tested on: L1210 leukemia ip in BDF1 mice, survival T/C
Experiment: NCI In Vivo Anticancer Drug Screen. Data for tumor model L1210 Leukemia (intraperitoneal) in B6D2F1 (BDF1) mice
Conditions: endpoint: mean survival time, higher = longer survival
Outline: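 Mice bearing the transplanted tumor received compound or vehicle. Survival of the treated group was divided by that of the vehicle-treated control group to give the ratio.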

[1] = dose: 100.0 mg/kg/injection, schedule: Q04DX003 (ip), vehicle: saline
[2] = dose: 200.0 mg/kg/injection, schedule: Q04DX003 (ip), vehicle: saline

Measured: T/C

O=C1CCC2(CCCc3c2ccc2ccccc32)O1 (centres undefined)
inactive: dose: 50.0 mg/kg/injection, schedule: Q04DX003 (ip), vehicle: saline 97 % of control | [1] 97 % of control | [2] 90 % of control

CC(=O)NN=C1CCC(=NNC(C)=O)CC1
inactive: dose: 12.5 mg/kg/injection, schedule: Q04DX003 (ip), vehicle: Klucel (hydroxypropylcellulose) (HPC) 97 % of control | dose: 25.0 mg/kg/injection, schedule: Q04DX003 (ip), vehicle: Klucel (hydroxypropylcellulose) (HPC) 94 % of control | dose: 50.0 mg/kg/injection, schedule: Q04DX003 (ip), vehicle: Klucel (hydroxypropylcellulose) (HPC) 108 % of control | dose: 100.0 mg/kg/injection, schedule: Q04DX003 (ip), vehicle: Klucel (hydroxypropylcellulose) (HPC) 110 % of control

CCSCCC#N
inactive: dose: 100.0 mg/kg/injection, schedule: Q04DX002 (ip), vehicle: saline 103 % of control | dose: 200.0 mg/kg/injection, schedule: Q04DX002 (ip), vehicle: saline 109 % of control

OC(c1ccccc1)(c1ccccc1)C(F)(Cl)Cl
inactive: [1] 101 % of control | [2] 94 % of control | dose: 400.0 mg/kg/injection, schedule: Q04DX003 (ip), vehicle: saline 90 % of control

O=C(O)c1ccc(F)cc1F
inactive: dose: 100.0 mg/kg/injection, schedule: Q04DX002 (ip), vehicle: Klucel (hydroxypropylcellulose) (HPC) 121 % of control | dose: 200.0 mg/kg/injection, schedule: Q04DX002 (ip), vehicle: Klucel (hydroxypropylcellulose) (HPC) 105 % of control | dose: 400.0 mg/kg/injection, schedule: Q04DX002 (ip), vehicle: Klucel (hydroxypropylcellulose) (HPC) 98 % of control

CN1C2CCC1CC(OC(c1ccccc1)c1ccccc1)C2 (centres undefined)
inactive: dose: 3.12 mg/kg/injection, schedule: Q01DX009 (ip), vehicle: saline 95 % of control | dose: 5.0 mg/kg/injection, schedule: Q01DX009 (ip), vehicle: saline 92 % of control | dose: 6.25 mg/kg/injection, schedule: Q01DX009 (ip), vehicle: saline 97 % of control | dose: 10.0 mg/kg/injection, schedule: Q01DX009 (ip), vehicle: saline 103 % of control | dose: 12.5 mg/kg/injection, schedule: Q01DX009 (ip), vehicle: saline 103 % of control | dose: 17.0 mg/kg/injection, schedule: Q01DX009 (ip), vehicle: saline 95 % of control | dose: 20.0 mg/kg/injection, schedule: Q01DX009 (ip), vehicle: saline 90 % of control | dose: 25.0 mg/kg/injection, schedule: Q01DX009 (ip), vehicle: saline 109 % of control | dose: 55.0 mg/kg/injection, schedule: Q01DX001 (ip), vehicle: saline 98 % of control

CC(=O)Nc1ncnc2c1ncn2Cc1ccccc1
inactive: dose: 100.0 mg/kg/injection, schedule: Q04DX003 (ip), vehicle: saline with Tween-80 99 % of control | dose: 200.0 mg/kg/injection, schedule: Q04DX003 (ip), vehicle: saline with Tween-80 93 % of control

CCN(CC)CCCC#CCN1CCOCC1
inactive: dose: 50.0 mg/kg/injection, schedule: Q01DX009 (ip), vehicle: saline 101 % of control | dose: 100.0 mg/kg/injection, schedule: Q01DX009 (ip), vehicle: saline 93 % of control | [1] 103 % of control | dose: 200.0 mg/kg/injection, schedule: Q01DX009 (ip), vehicle: saline 93 % of control | [2] 109 % of control

CC(C)N1CCOCC1
inactive: dose: 25.0 mg/kg/injection, schedule: Q01DX009 (ip), vehicle: acetone 94 % of control | dose: 50.0 mg/kg/injection, schedule: Q01DX009 (ip), vehicle: acetone 105 % of control | dose: 100.0 mg/kg/injection, schedule: Q01DX009 (ip), vehicle: acetone 102 % of control

From PubChem BioAssay AID248 (DTP/NCI, 2004)
